How the values were obtained:
Assay type in all cases: in vivo, human
[1] = Urinary MDA after a single cycling bout under hypoxic conditions (16% oxygen), crossover trial; conditions: 7 grams ribose in 250 mL water before and after exercise; compared to the placebo; n=7 subjects; p=0.01
Procedure: (§1) Seven healthy, moderately to highly conditioned subjects volunteered to participate in this randomized, blinded, crossover trial. All subjects were between the ages of 23 and 41 years of age, and each subject cycled in two distinct trial arms, a ribose phase and a control phase. One week separated each trial arm. Subjects ingested either 7 grams of ribose in 250 mL of water or just plain water, five minutes prior to the start of exercise and again within five minutes following exercise. The scheduled exercise was 25 minutes of cycling at a workload relating to the lactic acid threshold. Subjects inhaled a hypoxic gas mixture of 16% oxygen and 84% nitrogen through a one-way breathing valve during the exercise bout. Following the cycling exercise, subjects sat quietly for 60 minutes and breathed room air during the recovery phase. All tests were conducted at room temperature. […] A whole blood sample was analyzed for hemoglobin. […] Each frozen plasma sample was analyzed for total protein and uric acid levels. Plasma samples were also analyzed for reduced glutathione levels (GSH kit, Oxis Research, Portland, Oreg.) and volumes were corrected for potential fluid loss by measuring total protein values. The frozen urine samples were analyzed for MDA (MDA kit, Oxis Research, Portland, Oreg.). […]

[2] = Reduced plasma glutathione (GSH) after a single cycling bout under hypoxic conditions; conditions: 7 grams ribose before and after exercise; n=7 subjects; p=0.000
Procedure: as §1

[3] = Heart rate during a cycling bout under hypoxic conditions; conditions: n=7 subjects
Procedure: Seven healthy, moderately to highly conditioned subjects volunteered to participate in this randomized, blinded, crossover trial. All subjects were between the ages of 23 and 41 years of age, and each subject cycled in two distinct trial arms, a ribose phase and a control phase. One week separated each trial arm. Subjects ingested either 7 grams of ribose in 250 mL of water or just plain water, five minutes prior to the start of exercise and again within five minutes following exercise. The scheduled exercise was 25 minutes of cycling at a workload relating to the lactic acid threshold. Subjects inhaled a hypoxic gas mixture of 16% oxygen and 84% nitrogen through a one-way breathing valve during the exercise bout. Following the cycling exercise, subjects sat quietly for 60 minutes and breathed room air during the recovery phase. All tests were conducted at room temperature. The cardiovascular parameters of heart rate and oxygen pulse saturation (SpO2) were collected at 9 minutes, 17 minutes, and 25 minutes of exercise. Oxygen pulse saturation was collected with a Nonin pulse oximeter (Nonin Medical Inc., Plymouth, Minn.). […] The 4.8% vs. 7.5% represents heart rates of 175 beats per minute (bpm) and 181 bpm for ribose and placebo (n=7 subjects).

[4] = Subjective ranking of exercise and recovery by blinded subjects
Procedure: Seven healthy, moderately to highly conditioned subjects volunteered to participate in this randomized, blinded, crossover trial. All subjects were between the ages of 23 and 41 years of age, and each subject cycled in two distinct trial arms, a ribose phase and a control phase. One week separated each trial arm. Subjects ingested either 7 grams of ribose in 250 mL of water or just plain water, five minutes prior to the start of exercise and again within five minutes following exercise. The scheduled exercise was 25 minutes of cycling at a workload relating to the lactic acid threshold. Subjects inhaled a hypoxic gas mixture of 16% oxygen and 84% nitrogen through a one-way breathing valve during the exercise bout. Following the cycling exercise, subjects sat quietly for 60 minutes and breathed room air during the recovery phase. All tests were conducted at room temperature. […] During the control trial, subjects expressed strong desires to take a nap during the recovery period. Additionally, four of the subjects reported that after leaving the laboratory, they went home and took long (>2 hours) naps.

In the case of `O=C[C@H](O)[C@H](O)[C@H](O)CO` [ribose, D-ribose], the “Percent change in urine MDA” value [1] is reported as “significantly lower”, the “Percent change in plasma GSH” value [2] is reported as “significantly lower” and the Heart rate ([3]; during hypoxic exercise, placebo 181 bpm) is reported as 175 bpm. The “Percent change in heart rate during exercise (in words)” value ([3]; ribose supplementation vs placebo, p=0.03) was “significantly less”, the “Percent change in heart rate during exercise” value ([3]; ribose supplementation, placebo 7.5%) was 4.8% and the “Blinded subjects who ranked the exercise easier and felt they had a faster recovery period” value ([4]; after cycling when they ingested ribose) was 6 out of 7. The “Comments and symptoms observed during recovery” value ([4]; recovery after hypoxic cycling when ribose was ingested) was “decreased lethargy”.

— patent publication US20030212006A1, “Method for reducing free radical formation in healthy individuals undergoing hypoxic exercise and medical conditions with increased oxygen free radicals” (priority 2002, published 2003)
